Measurements taken from ChEMBL document CHEMBL1144217, “Design, synthesis and characterization of podocarpate derivatives as openers of BK channels” (Bioorg Med Chem Lett, 2008).

Molecular target: Calcium-activated potassium channel subunit alpha-1 (Homo sapiens) (UniProt Q12791)
Assay: Activation of human BKalpha channel expressed in CHOK1 cells assessed as increase in ionic current at 30 uM relative to control
Format: cell-based
Conditions: CHO-K1

Sequence of Calcium-activated potassium channel subunit alpha-1 (Homo sapiens) (Q12791 whole entry): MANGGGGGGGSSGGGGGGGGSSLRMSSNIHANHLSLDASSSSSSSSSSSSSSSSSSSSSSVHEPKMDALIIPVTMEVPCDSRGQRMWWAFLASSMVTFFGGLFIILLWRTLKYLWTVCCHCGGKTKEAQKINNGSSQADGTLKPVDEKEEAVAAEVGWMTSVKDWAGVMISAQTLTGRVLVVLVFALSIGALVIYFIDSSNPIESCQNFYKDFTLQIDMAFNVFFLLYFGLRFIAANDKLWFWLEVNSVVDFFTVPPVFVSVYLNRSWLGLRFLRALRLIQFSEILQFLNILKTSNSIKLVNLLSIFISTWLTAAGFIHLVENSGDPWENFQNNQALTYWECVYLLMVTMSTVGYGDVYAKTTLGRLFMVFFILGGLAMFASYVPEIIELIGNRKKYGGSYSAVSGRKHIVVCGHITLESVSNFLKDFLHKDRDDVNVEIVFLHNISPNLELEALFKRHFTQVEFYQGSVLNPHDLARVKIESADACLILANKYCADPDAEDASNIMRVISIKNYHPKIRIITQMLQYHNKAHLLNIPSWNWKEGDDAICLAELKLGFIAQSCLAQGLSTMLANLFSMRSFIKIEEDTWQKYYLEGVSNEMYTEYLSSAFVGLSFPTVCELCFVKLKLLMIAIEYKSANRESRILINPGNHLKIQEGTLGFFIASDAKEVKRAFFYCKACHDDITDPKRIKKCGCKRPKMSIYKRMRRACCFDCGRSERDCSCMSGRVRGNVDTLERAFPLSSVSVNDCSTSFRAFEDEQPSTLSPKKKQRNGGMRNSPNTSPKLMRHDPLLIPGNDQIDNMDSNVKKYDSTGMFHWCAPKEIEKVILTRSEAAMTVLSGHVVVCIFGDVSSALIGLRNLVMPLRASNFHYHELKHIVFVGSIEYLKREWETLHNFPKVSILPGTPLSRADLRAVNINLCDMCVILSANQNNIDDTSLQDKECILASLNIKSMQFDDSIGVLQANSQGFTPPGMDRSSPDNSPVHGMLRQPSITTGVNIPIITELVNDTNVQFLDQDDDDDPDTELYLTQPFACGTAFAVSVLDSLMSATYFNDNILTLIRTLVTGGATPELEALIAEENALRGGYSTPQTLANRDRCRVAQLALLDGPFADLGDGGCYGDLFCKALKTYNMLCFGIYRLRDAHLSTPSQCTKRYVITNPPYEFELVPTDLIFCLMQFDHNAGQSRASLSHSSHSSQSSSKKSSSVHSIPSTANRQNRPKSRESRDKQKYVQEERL

Compound | Activity [%]
Cc1cc(C)cc(COc2ccc3c(c2)[C@@]2(C)CCC[C@](C)(C(=O)O)[C@@H]2CC3)c1 | 130
COC(=O)[C@@]1(C)CCC[C@]2(C)c3cc(O)ccc3CC[C@@H]12 | 118
CC(C)(C)c1ccc(COc2ccc3c(c2)[C@@]2(C)CCC[C@](C)(C(=O)O)[C@@H]2CC3)cc1 | 116
COC(=O)[C@@]1(C)CCC[C@]2(C)c3cc(OCCCc4ccccc4)ccc3CC[C@@H]12 | 116
Cc1ccccc1COc1ccc2c(c1)[C@@]1(C)CCC[C@](C)(C(=O)O)[C@@H]1CC2 | 88.9
C[C@]1(C(=O)O)CCC[C@]2(C)c3cc(OCCN4CCCCC4)ccc3CC[C@@H]12 | 103
COc1ccc2c(c1)[C@@]1(C)CCC[C@](C)(C(=O)O)[C@@H]1CC2 | 124
COc1ccc(COc2ccc3c(c2)[C@@]2(C)CCC[C@](C)(C(=O)O)[C@@H]2CC3)cc1 | 109
C[C@]1(C(=O)O)CCC[C@]2(C)c3cc(OCc4ccccc4)ccc3CC[C@@H]12 | 209
C[C@]1(C(=O)O)CCC[C@]2(C)c3cc(OCc4ccc(C(F)(F)F)cc4)ccc3CC[C@@H]12 | 185
C[C@]1(C(=O)O)CCC[C@]2(C)c3cc(OCc4ccc(OC(F)(F)F)cc4)ccc3CC[C@@H]12 | 139
C[C@]1(C(=O)O)CCC[C@]2(C)c3cc(O)ccc3CC[C@@H]12 | 207
C[C@]1(C(=O)O)CCC[C@]2(C)c3cc(OCCCc4ccccc4)ccc3CC[C@@H]12 | 244
CC(C)c1ccc(COc2ccc3c(c2)[C@@]2(C)CCC[C@](C)(C(=O)O)[C@@H]2CC3)cc1 | 125

Next, values leading:

Activity [%] | Compound
116 | C[C@]1(C(=O)O)CCC[C@]2(C)c3cc(OCc4ccc(C#N)cc4)ccc3CC[C@@H]12
121 | C[C@]1(C(=O)O)CCC[C@]2(C)c3cc(OCc4ccc(Cl)cc4)ccc3CC[C@@H]12
122 | C[C@]1(C(=O)O)CCC[C@]2(C)c3cc(OCc4ccc5ccccc5c4)ccc3CC[C@@H]12
124 | C[C@]1(C(=O)O)CCC[C@]2(C)c3cc(OCC4CCCCC4)ccc3CC[C@@H]12
148 | C=CCOc1ccc2c(c1)[C@@]1(C)CCC[C@](C)(C(=O)O)[C@@H]1CC2
151 | Cc1ccc(COc2ccc3c(c2)[C@@]2(C)CCC[C@](C)(C(=O)O)[C@@H]2CC3)cc1
170 | CCCOc1ccc2c(c1)[C@@]1(C)CCC[C@](C)(C(=O)O)[C@@H]1CC2
134 | CC(C)Oc1ccc2c(c1)[C@@]1(C)CCC[C@](C)(C(=O)O)[C@@H]1CC2
124 | C[C@]1(C(=O)O)CCC[C@]2(C)c3cc(OCCOCc4ccccc4)ccc3CC[C@@H]12
